Laboratory results from US20250235486A1, “Method of Producing Insulin-Producing Cells” (Monash University, priority 2022, published 2025).

Assays:
Assay type in all cases: cell-based
[1] = test system: human pancreatic exocrine cells; experiment: qRT-PCR gene expression in ex vivo pancreatic exocrine cells from non-diabetic and type 1 diabetic donors
Description: Islets were purified by intraductal perfusion and digestion of the pancreases with collagenase AF-1 (SERVA/Nordmark, Germany) (Ricordi C et al. Automated method for isolation of human pancreatic islets. Diabetes 37, 413-420 (1988)), followed by purification using Ficoll density gradients (Barbaro B, et al. Improved human pancreatic islet purification with the refined UIC—UB density gradient. Transplantation 84, 1200-1203 (2007)). Purified islets, from low density gradient fractions, and acinar/ductal tissue, from high density fractions, were cultured in Miami Media 1A (Mediatech/Corning 98-021, USA) supplemented with 2.5% human serum albumin (Australian Red Cross, Melbourne, VIC, Australia), in a 37° C., 5% CO2 incubator.
Total RNA from human ex vivo pancreatic cells was isolated using TRIzol (Invitrogen) and RNeasy Kit (QIAGEN) including a DNase treatment. First-strand cDNA synthesis was performed using a high-capacity cDNA Reverse Transcription Kit (Applied Biosystems) according to the manufacturer's instructions. cDNA primers were designed using oligoperfect designer (Thermo Fisher Scientific), as shown in Table 2 and Table 3. Briefly, quantitative RT-PCR analyses were undertaken using the PrecisionFast 2× qPCR Master Mix (Primerdesign) and primers using Applied Biosystems 7500 Fast Real-Time PCR System. Each qPCR reaction contained: 6.5 μl qPCR Master Mix, 0.5 μl of forward and reverse primers, 3.5 μl H2O and 2 μl of previously synthesised cDNA, diluted 1/20. Expression levels of specific genes were tested and normalised to 18s ribosomal RNA housekeeping gene.
All cell incubations were performed in Miami Media 1A (Mediatech/Corning 98-021, USA) supplemented with 2.5% human serum albumin (Australian Red Cross, Melbourne, VIC, Australia), in a cell culture incubator at 37° C. in an atmosphere of 5% CO2 for 48 hr using non-treated 6 well culture plates (Corning).

[2] = test system: H3K27me3 content at promoters in human exocrine cells; experiment: Chromatin immunoprecipitation (anti-H3K27me3) qPCR in exocrine cells of a non-diabetic donor; settings: GSK126 vs DMSO
Procedure: Chromatin immunoprecipitation assays in human exocrine cells were performed previously described (Rafehi H, et al. Vascular histone deacetylation by pharmacological HDAC inhibition. Genome Res 24, 1271-1284 (2014); Pirola L, et al. Genome-wide analysis distinguishes hyperglycemia regulated epigenetic signatures of primary vascular cells. Genome Res 21, 1601-1615 (2011)). Cells were fixed for 10 minutes with 1% formaldehyde and quenched for 10 mins with glycine (0.125 M) solution. Fixed cells were resuspended in sodium dodecyl (lauryl) sulfate (SDS) lysis buffer (1% SDS, 10 mM EDTA, 50 mM Tris-HCl pH 8.1) including a protease inhibitor cocktail (Roche Diagnostics GmBH, Mannheim, Germany) and homogenized followed by incubation on ice for 5 minutes. […] H3K27me3 content at the promoters of the INS, INS-IGF2, NGN3 and PDX1 genes were assessed by qPCR using primers designed from the integrative ENCODE resource (Zhang J, et al. An integrative ENCODE resource for cancer genomics. Nat Commun 11, 3696 (2020)).
Proteins were cross-linked to DNA and soluble chromatin fractionated by sonication. […] DNA was assessed by qPCR using amplimers specifically designed to detect human Ins chromatin domain genes (FIG. 5a). […]

[3] = test system: marmoset exocrine (acinar and ductal) cells; experiment: qRT-PCR gene expression in marmoset exocrine (acinar and ductal) cells; settings: 48 hours: GSK126 10 μM, ursolic acid 5 μM
Procedure: (§1) Exocrine cells from a non-diabetic human and a marmoset were cultured and assayed in Miami/CMRL medium. The human exocrine cells were sourced from the Islet Transplant Unit of St Vincent's Institute for Medical Research. The marmoset exocrine cells were sourced from the Australian Regenerative Medicine Institute (ARMI), Monash University. Miami media is based on CMRL 1066 media (Connaught Medical Research Lab) supplemented with: Insulin, Transferrin & Selenium (ITS), human serum, Vitamin E, sodium pyruvate, zinc and HEPES. Pharmacological inhibition of EZH2 and gene expression analysis were performed as described in Example 1.

[4] = test system: Human pancreatic ductal epithelial cells; experiment: Glucose stimulated insulin secretion assay (ELISA)
Procedure: 5×10^5 cells were seeded in 12-well plates and allowed to adhere for 24 hours. […] Next, cells were cultured in 28 mM (High) glucose Krebs Buffer solution and incubated for 1 hour to obtain the glucose stimulated insulin secretion. Supernatant was collected and Ultrasensitive Insulin ELISA (Mercodia) was used to determine the concentration of insulin according to manufacturer's instructions. Fold change of insulin secreted by cells were calculated by adjusting to cells stimulated with EZH2 inhibitors for insulin concentrations compared to control.

[5] = test system: human exocrine (acinar and ductal) cells; experiment: qRT-PCR gene expression in human exocrine (acinar and ductal) cells from a non-diabetic donor; settings: 48 hours: GSK126 10 μM, CPI-1205 5 μM, ursolic acid 5 μM, GSK343 5 μM, EPZ-6438 5 μM
Procedure: as §1

[6] = test system: Human pancreatic ductal epithelial cells; experiment: qRT-PCR after 2- and 7-day EZH2 inhibitor stimulation of human pancreatic ductal epithelial cells; settings: GSK-126 10 μM
Procedure: Human pancreatic ductal epithelial cells were purchased from AddexBio and cultured according to the recommended protocols. Cells were cultured in complete Keratinocyte Serum-Free Media (supplemented with human recombinant EGF, Bovine Pituitary Extract and Antibiotic-Antimycotic [Gibco]. All cell cultures were grown and maintained in a 37° C., 5% C02 environment using a tissue culture incubator. Once cells reached 70-80% confluency, passaging was performed using 0.05% Trypsin EDTA (Sigma). […] Vehicle control was DMSO. Cells were treated over 2 main timepoints, with harvests occurring following 2, and 7 days. For the 2-day time point, cells were seeded and left to adhere in plates for 24 hours. Treatment was initiated with the first dose made up in complete K-SFM. The second dose was delivered 24 hours later following a media change. For the longer period of 7 days, cells were initially seeded in 10 cm plates, with doses delivered on alternate days following the initial period of 24 hours. […] Ct values of experimental genes were normalized to housekeeping gene [MUT]. Fold change of mRNA abundance was calculated by normalizing drug treated values to vehicular controls. […] RNA was isolated using the RNeasy Kit according to the manufacturer's directions. Following measurement of RNA concentration using a QIAxpert System, 1 μg of RNA was used for cDNA synthesis by a high-capacity cDNA Reverse Transcription Kit (Applied Biosystems). The resulting cDNA reaction mix was diluted 1:6 to make up the final template cDNA used subsequently. […] Ct values of experimental genes were normalized to housekeeping gene [MUT]. Fold change of mRNA abundance was calculated by normalizing drug treated values to vehicular controls.

[7] = 10 mM GSK126 (so in the source), 48 hr
[8] = 10 mM GSK126 (so in the source), 48 hr, non-diabetic and T1D donors
[9] = 2 days, EPZ6438 1 μM, Triptolide 20 nM
[10] = 7 days, EPZ6438 1 μM, Triptolide 20 nM

CC[C@H](C)n1cc(C)c2c(C(=O)NCc3c(C)cc(C)[nH]c3=O)cc(-c3ccc(N4CCNCC4)nc3)cc21 [GSK126, N-[(1,2-Dihydro-4,6-dimethyl-2-oxo-3-pyridinyl)methyl]-3-methyl-1-[(1S)-1-methylpropyl]-6-[6-(1-piperazinyl)-3-pyridinyl]-1H-indole-4-carboxamide]
Amy2A (acinar marker) expression [1, 7]: did not significantly alter | Ck19 (ductal marker) expression [1, 7]: did not significantly alter | Ki67 (proliferative marker) expression [1, 7]: increased | Txnip (glucose-sensor) expression [1, 7]: did not significantly alter | Ins gene expression [1, 8]: significant expression | Ngn3 mRNA expression [1, 8]: restored | Pdx1 mRNA expression [1, 8]: restored | Sox9 mRNA expression [1, 8]: restored | MafA gene expression ([1]; ex vivo exocrine cells, GSK126): restored | Nkx6.1 gene expression ([1]; ex vivo exocrine cells, GSK126): restored | Sox11 gene expression ([1]; ex vivo exocrine cells, GSK126): restored | H3K27me3 content at the Ins and Igf2AS promoter (R1-R3) regions ([2]; non-diabetic donor (2)): Significant reduction | H3K27me3 content on the Ngn3 promoter R1 ([2]; non-diabetic exocrine cells): marginally affected | Insulin mRNA expression [3]: stimulated expression | Pdx1 mRNA expression [3]: stimulated expression | insulin concentration after incubation in high-glucose media (28 mM glucose, 1 hour) ([4]; 2-day stimulation (FIG. 13d), GSK126 10 μM, EPZ6438 1 μM, Triptolide 20 nM, not observed in DMSO control): significant elevations | Release of insulin (glucose stimulated) ([4]; 7 days stimulation (FIG. 13e)): maintained | mRNA expression of Insulin, Pdx1 and Ngn3 [5]: stimulated expression of one, two or all of Insulin, Pdx1 and Ngn3 | MAFA mRNA levels ([6]; 2-day point, Triptolide 20 nM): increased in a statistically significant manner | Alpha-amylase (AMY2A) transcripts ([6]; 2 days): increased significantly | CK19 expression [6, 9]: statistically significant decreases | NGN3 mRNA levels [6, 9]: significantly elevated | insulin transcripts, mature mRNA (INS) [6, 9]: elevations | insulin transcripts, unprocessed heterogenous nuclear form (INS hnRNA) [6, 9]: elevations | NGN3 mRNA levels [6, 10]: Further increases | insulin transcripts, mature mRNA (INS) [6, 10]: even further increases | insulin transcripts, unprocessed heterogenous nuclear form (INS hnRNA) [6, 10]: even further increases
